Like-named read-outs stand apart in the source and are kept apart here. Where no end group is shown, it is not given here.
Columns and labels:
Format in all cases: cell-based
[1] = target: T1, bradykinin (BK) B2 receptors (Homo sapiens, UniProt P30411); experiment: PG secretion by BK B2 receptor agonists (PG kit, OD), EC50 and Emax; details: HASMC; for EC50: 1 h incubation at 37° C.
T1 construct: The cell strains used in the study were human primary vein endothelial cells (HPVEC) and human aortic smooth muscle cells (HASMC); endogenous in cells; host or cells: human primary vein endothelial cells (HPVEC) and human aortic smooth muscle cells (HASMC)
T1 sequence (P30411 1-391): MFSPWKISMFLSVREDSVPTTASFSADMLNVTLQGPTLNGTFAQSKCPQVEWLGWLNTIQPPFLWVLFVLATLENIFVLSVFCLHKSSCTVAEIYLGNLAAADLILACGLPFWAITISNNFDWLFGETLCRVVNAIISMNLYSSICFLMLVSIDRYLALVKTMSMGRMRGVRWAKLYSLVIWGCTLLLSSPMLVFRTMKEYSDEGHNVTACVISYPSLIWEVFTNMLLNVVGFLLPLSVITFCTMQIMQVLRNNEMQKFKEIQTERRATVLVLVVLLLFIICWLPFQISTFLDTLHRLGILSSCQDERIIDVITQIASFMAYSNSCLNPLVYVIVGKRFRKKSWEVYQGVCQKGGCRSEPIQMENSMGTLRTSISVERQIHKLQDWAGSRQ
Method: Implantation Two cell lines were transferred into T-75 cell culture flask, and then the instructions of PG kit were strictly followed when cells have reached the appropriate density. Day 1 Cells were seeded in 24 well dishes with minimum medium and allowed to adhere overnight. Day 2 Cells were starved in the serum-free conditioned medium. Day 3 Minimum medium were used, and YLB-01, YLB-02 and YLB-03 were added to the medium, in which the concentration was 0.1 nM, 1 nM, 10 nM, 30 nM, 100 nM, 300 nM, 1 μM, 3 μM and 10 μM, respectively; the cells were incubated at 37° C. for 1 h. The supernatant was collected after incubation for later use. Day 4 24 well dishes were washed and then dyed for 45-90 min, and then the OD value was measured for analysis. The cell strains used in the study were human primary vein endothelial cells (HPVEC) and human aortic smooth muscle cells (HASMC).

BK B2 receptor = target: T2, BK B2 receptor (Homo sapiens, UniProt P30411); experiment: Relative amount of PG secretion in cell supernatant by enzyme immunoassay (EIA); details: 1 h, 1 μM BK set as 100%; for activation at 0.0001 µM: 0.1 nM; for activation at 0.001 µM: 1 nM; for activation at 0.01 µM: 10 nM; for activation at 0.03 µM: 30 nM; for activation at 0.1 µM: 100 nM; for activation at 0.3 µM: 300 nM
T2 construct: The cell strains used in the study were human primary vein endothelial cells (HPVEC) and human aortic smooth muscle cells (HASMC); endogenous in cells; host or cells: human primary vein endothelial cells (HPVEC) and human aortic smooth muscle cells (HASMC)
T2 sequence (P30411 1-391): T1 sequence (P30411 1-391)
Method: YLB-01, YLB-02 and YLB-03 were selected for the study as described below in Table 1, and BK was used as control. Implantation Two cell lines were transferred into T-75 cell culture flask, and then the instructions of PG kit were strictly followed when cells have reached the appropriate density. Day 1 Cells were seeded in 24 well dishes with minimum medium and allowed to adhere overnight. Day 2 Cells were starved in the serum-free conditioned medium. […] The supernatant was collected after incubation for later use. Day 4 24 well dishes were washed and then dyed for 45-90 min, and then the OD value was measured for analysis. […] In order to detect endogenous prostaglandin, enzyme immunoassay (EIA) was used to determine the amount of prostaglandin and subtypes thereof in the cell supernatant described above.

B2 receptor = target: T3, B2 receptor (Homo sapiens, UniProt P30411); experiment: Relative PG secretion with B2 receptor inhibitor HOE-140; details: 1 μM BK set as 100%
T3 construct: The cell strains used in the study were human primary vein endothelial cells (HPVEC) and human aortic smooth muscle cells (HASMC); endogenous in cells; host or cells: human primary vein endothelial cells (HPVEC) and human aortic smooth muscle cells (HASMC)
T3 sequence (P30411 1-391): T1 sequence (P30411 1-391)
Method: Two different cell lines were transferred into T-75 cell culture flask, and then the instructions of PG kit were strictly followed when cells have reached the appropriate density. Day 1. Cells were seeded in 24 well dishes with minimum medium and allowed to adhere overnight. Day 2. Cells were starved in the serum-free conditioned medium. Day 3. […] Cells were incubated at 37° C. for 1 h. The supernatant was collected after incubation for later use. Day 4. 24 well dishes were washed and then dyed for 45-90 min, and then the quantitative analysis was carried out.

[2] = test system: human aortic smooth muscle cells (HASMC); experiment: PG subtype secretion by EIA in HASMC; details: 10 nM, 1 μM BK set as 100%
[3] = test system: human primary vein endothelial cells (HPVEC); experiment: PG subtype secretion by EIA in HPVEC; details: 10 nM, 1 μM BK set as 100%
Method: In order to study of prostaglandin subtypes secretion triggered by activation of B2 receptor by these three compounds, human primary vein endothelial cells (HPVEC) and human aortic smooth muscle cells (HASMC) were used for PG secretion, following the same protocol above; 10 nM of these compounds, YLB-1, YLB-2, YLB-3 was added. […] These percentage values above were all calibrated with respect to bradykinin.

Row | Molecule | EC50 [1] | Emax ([1]; relative to BK, read-out: Emax) | Emax ([1]; relative to BK) | activation at 0.0001 µM (BK B2 receptor) | activation at 0.001 µM (BK B2 receptor) | activation at 0.01 µM (BK B2 receptor) | activation at 0.03 µM (BK B2 receptor) | activation at 0.1 µM (BK B2 receptor) | activation at 0.3 µM (BK B2 receptor) | activation at 1 µM (BK B2 receptor) | activation at 3 µM (BK B2 receptor) | activation at 10 µM (BK B2 receptor) | Relative PG Secretion Amount with 1 μM HOE-140 (B2 receptor; agonist 0.1 nM + HOE-140 1 μM) | Relative PG Secretion Amount with 1 μM HOE-140 (B2 receptor; agonist 1 nM + HOE-140 1 μM) | Relative PG Secretion Amount with 1 μM HOE-140 (B2 receptor; agonist 10 nM + HOE-140 1 μM) | Relative PG Secretion Amount with 1 μM HOE-140 (B2 receptor; agonist 30 nM + HOE-140 1 μM) | Relative PG Secretion Amount with 1 μM HOE-140 (B2 receptor; agonist 100 nM + HOE-140 1 μM) | Relative PG Secretion Amount with 1 μM HOE-140 (B2 receptor; agonist 300 nM + HOE-140 1 μM) | Relative PG Secretion Amount with 1 μM HOE-140 (B2 receptor; agonist 1 μM + HOE-140 1 μM) | Relative PG Secretion Amount with 1 μM HOE-140 (B2 receptor; agonist 3 μM + HOE-140 1 μM) | other results
1 | COc1nc2c(OCc3c(Cl)ccc(N(C)C(=O)CNC(=O)CCc4ccc(NC(C)=O)nc4)c3Cl)cccc2n1Cc1ccccn1 [YLB-02] | 0.0406 ± 0.00419 µM | 70% | 70.44 ± 5.06% | 0% | 15.2 ± 3.36% | 26.4 ± 6.06% | ~40% | 65.6 ± 8.1% | 67.3 ± 7.02% | 66.9 ± 8.11% | 70.4 ± 5.06% | 65.5 ± 5.78% | 3.65 ± 2.77% | 0.21 ± 4.42% | 5.60 ± 3.43% | 3.33 ± 1.88% | 0.43 ± 4.16% | 1.05 ± 2.39% | 2.87 ± 3.04% | 4.25 ± 2.06% | Relative PG Secretion Amount with 1 μM HOE-140 (B2 receptor; agonist 10 μM + HOE-140 1 μM): 10.1 ± 4.43%; PGD2 [2]: undetectable; PGE2 [2]: 26.33 ± 6.78%; PGF-2a [2]: 7.1 ± 3.41%; PGD2 [3]: undetectable; PGE2 [3]: 34.15 ± 9.54%; PGF-2a [3]: undetectable
2 | CNC(=O)N1CCN(CCC(=O)NCC(=O)N(C)c2ccc(Cl)c(COc3cccc4c3nc(OC)n4Cc3ccccn3)c2Cl)CC1 [YLB-03, 4-{2-[({[2,4-Dichloro-3-(2-methoxy-1-pyridin-2-ylmethyl-1H-benzoimidazol-4-yloxymethyl)-phenyl]-methyl-carbamoyl}-methyl)-carbamoyl]-ethyl}-piperazine-1-carboxylic acid methylamide] | 0.0262 ± 0.00287 µM | 103% | 103.48 ± 9.06% | 0.44 ± 1.22% | 10.3 ± 2.3% | 47.3 ± 4.22% | ~55% | 71 ± 4.57% | 86.2 ± 8.51% | 85 ± 4.83% | 95.6 ± 7.21% | 103 ± 9.06% | 0.54 ± 3.59% | 2.65 ± 3.81% | 5.64 ± 4.05% | 4.90 ± 4.83% | 3.97 ± 2.75% | 0.48 ± 3.50% | 5.14 ± 2.67% | 7.33 ± 4.12% | Relative PG Secretion Amount with 1 μM HOE-140 (B2 receptor; agonist 10 μM + HOE-140 1 μM): 26.08 ± 7.56%; PGD2 [2]: undetectable; PGE2 [2]: 27.83 ± 10.66%; PGF-2a [2]: 8.43 ± 3.57%; PGD2 [3]: undetectable; PGE2 [3]: 31.04 ± 8.49%; PGF-2a [3]: undetectable
3 | RPPGFSPFR [BK, Bradykinin, reference compound] | – | – | – | – | – | – | – | – | – | – | – | – | – | – | – | – | – | – | – | – | Emax [1]: 101 ± 5.5%
